Data reported in patent US20260271924A1, “COMPOSITIONS FOR MODULATING PLANT GROWTH AND STRESS TOLERANCE, AND METHODS OF USE THEREOF” (The Regents of the University of California, priority 2023, published 2026).
Entries after “also recorded” stand apart in the source; their conditions may differ.

Tests used:
Arabidopsis [1] = assay: Arabidopsis seedling growth / primary root length on treated ½× MS media; format: in vivo, Arabidopsis thaliana
Description: (§1) Plant Growth. For the Arabidopsis treatments, compounds were added to sterile ½× Murashige and Skoog (MS) plant growth media, and the pH was adjusted to 5.7 using potassium hydroxide. Seeds were sterilized using 20% bleach and sowed on the treated plant growth media. Plants were incubated in a 16 h/8 h day/night cycle growth chamber at 22° C. for 7-14 days prior to phenotyping. For the maize treatments, compounds were added to water, and the pH was adjusted to 5.7 using potassium hydroxide. Maize seeds were sterilized using 20% bleach and grown in large size seed germination pouches (see, e.g., mega-international.com) with the treatment. Plants were incubated in a 16 h/8 h day/night cycle growth chamber at 28° C. night/21° C. day for 5 days prior to phenotyping.
Stock Solutions. 100 mM stock solutions of the various metabolites and itaconate were produced. Metabolites were dissolved using Milli-Q (MQ) water and the pH was adjusted to 5.7-5.8 using 1M KOH. The Ocyl-itaconate stock solution was dissolved in dimethyl sulfoxide (DMSO). Arabidopsis seeds were sterilized using 20% bleach and allowed to mix for 7 minutes. After mixing, seeds were rinsed with sterilized water 6 times. Sterilized seedlings were then placed on media filled square plates. Micropore tape was used to wrap the plates and aluminum foil was used to cover plates, before stratifying for 2 days in a 4° C. chamber. After stratification, seedlings were placed in 22° C. light chamber at intensity 625 lux for 7 days before scanning. All quantifications of the seedlings were performed on FIJI Image J. Seedlings with interesting phenotypes were then transferred to soil in 22° C. conditions with light intensity 625 lux.

maize = assay: Maize seedling growth under treatment in seed germination pouches; format: in vivo
Description: as §1

pCYCB1; 1-CYCB1; 1-GFP = assay: Cell cycle reporter line imaging; format: in vivo, Arabidopsis thaliana; conditions: 50 μM 4-OI; compared to the control
Description: (§2) Confocal Images. For Arabidopsis, most of the roots were stained by PI (Propidium iodide). Hormone reporter lines (GFP, 488 nm), hydrogen peroxide sensor lines (GFP, 488 nm; CFP, 408 nm) (see, Shi et al., Nat. Commun. 13:5040, 2022), ATP sensor lines (DeCol et al., eLife, 6:e26770, 2017) were observed under a Leica SP8 confocal microscope (CFP, 439 nm; VENUS, 516 nm).

6×ABRE-R:erGFP = assay: ABA signaling reporter line imaging; format: in vivo, Arabidopsis thaliana; conditions: 4-OI treatment
Description: as §2

TCSn-GFP = assay: Cytokinin signaling reporter line imaging; format: in vivo, Arabidopsis thaliana
Description: as §2

DR5-GFP = assay: Auxin reporter line imaging; format: in vivo, Arabidopsis thaliana; conditions: 4-OI treatment; compared to the control
Description: as §2

pPIN1-PIN1-GFP = assay: Auxin transport reporter line imaging; format: in vivo, Arabidopsis thaliana; conditions: 4-OI treatment
Description: as §2

ATP levels = assay: Fluorescent ATP reporter line imaging; format: in vivo, Arabidopsis thaliana; conditions: 4-OI; meristem zone
Description: as §2

superoxide = assay: NBT staining of Arabidopsis roots (ROS); format: in vivo, Arabidopsis thaliana; conditions: NBT and H2DCFDA staining; 1 mM itaconate, 50 μM 4-OI
Description: ROS staining. For ROS staining, superoxides were detected using NBT; and hydrogen peroxide was detected using 2′,7′-dichlorodihydrofluorescein diacetate (H2DCFDA).
NBT staining procedures were carried out as described in Kumar et al., Bio-protcol, 4:e1108, 2014. Briefly, a 0.2% solution of NBT was made in a 50 mM sodium phosphate buffer. This solution was used to soak seedlings for 2 minutes in the dark and was then rinsed using deionized (DI) water. Images were taken on a with a 1× objective with a Nikon SMZ1270 Stereo microscope.

Arabidopsis [2] = assay: Arabidopsis root growth under itaconate combined with stress agents or sucrose; format: in vivo, Arabidopsis thaliana; conditions: 50 mM NaCl; 100 mM Mannitol
Description: as §1

[3] = test system: root meristem and mature cells; assay: Aconitate treatment of roots; format: in vivo; conditions: treatment with aconitate

SMILES: CC(CC(=O)O)C(=O)O (stereo not shown) [2-methyl succinate, reference compound]
- impact on Arabidopsis (primary root length) (Arabidopsis [1]; 0.5 mM 2-methyl succinate): does not impact Arabidopsis
- impact on Arabidopsis (primary root length) (Arabidopsis [1]; 2 mM 2-methyl succinate): does not impact Arabidopsis

SMILES: C=C(CC(=O)OCCCCCCCC)C(=O)O [4-OI, 4-octyl itaconate]
- maize root growth (maize; 50 μM 4-OI for 5 days): enhanced maize root growth
- maize shoot growth (maize; 50 μM 4-OI for 5 days): without affecting shoot growth
- Arabidopsis growth (Arabidopsis [1]; 4-OI, 4 day old seedlings treated for 3 days): inhibits Arabidopsis growth in a dose-dependent manner
- plant growth (Arabidopsis [1]; Arabidopsis, 50 μM 4-OI): nearly arrested plant growth
- root gravitropic orientation (Arabidopsis [1]; Arabidopsis, 4-OI (50 μM)): roots lose their gravitropic orientation; also recorded: defective gravitropic phenotype
- number of actively dividing cells (pCYCB1; 1-CYCB1; 1-GFP): significant reduction
- 6×ABARE-R:erGFP intensity in the roots (6×ABRE-R:erGFP): induces
- TCSn-GFP signal in the QC (TCSn-GFP; 4-OI treatment): increases the signal in the QC
- TCSn-GFP intensity in the columella (TCSn-GFP; itaconate or 4-OI treatment): decrease; also recorded: reduces
- DR5-GFP fluorescent intensity (DR5-GFP): significantly induced; also recorded: is increased
- pPIN1-PIN1-GFP fluorescent intensity and area (pPIN1-PIN1-GFP): reduces both the pPIN1-PIN1-GFP fluorescent intensity and area
- ATP levels (ATP levels): increased ATP levels
- ROS levels in Arabidopsis roots (superoxide): decrease in ROS levels; also recorded: repress

SMILES: C#CCCCCCCOC(=O)CC(=C)C(=O)O [ITalk, itaconate-alkyne, reference compound]
- phenotype induced by ITalk treatment (Arabidopsis [1]; Arabidopsis, 1 μM and 10 μM iTalk): closely resembles that of 4-OI

SMILES: [Cl-].[Na+] [NaCl, sodium chloride]
- root growth under stress agent alone (Arabidopsis [2]): decrease root growth

SMILES: O=C(O)/C=C(/CC(=O)O)C(=O)O [aconitate]
- length of mature cells [3]: increased the length of mature cells
- meristem cell number [3]: inhibited meristem cell number

SMILES: C=C(CC(=O)O)C(=O)O [itaconate]
- increased growth (maize; maize treated with itaconate, p=0.01): 30%
- decreased growth (Arabidopsis [1]; Arabidopsis, same concentration of itaconate as maize, p<0.0001): 25%

SMILES: OC[C@@H](O)[C@@H](O)[C@H](O)[C@H](O)CO [mannitol]
- root growth under stress agent alone (Arabidopsis [2]): decrease root growth
